Laboratory results taken from the NIST ThermoML archive (doi:10.1016/j.jct.2019.03.040).

Tests used:
[1] = Liquid; for thermal diffusivity: 101.33 kPa, Laser flash apparatus
[2] = molar heat capacity at constant pressure; conditions: 101.33 kPa, Liquid, Small sample (50 mg) DSC

COC(=O)CCC(C)=O [methyl levulinate]
Conditions | Critical pressure [kPa] | Critical temperature [K] | molar heat capacity at constant pressure [J/K/mol] | thermal diffusivity [m2/s]
[1], 303.15 K | – | – | – | 8e-08
[1], 313.15 K | – | – | – | 7.9e-08
[1], 323.15 K | – | – | – | 7.85e-08
[1], 333.15 K | – | – | – | 7.7e-08
[1], 343.15 K | – | – | – | 7.6e-08
[1], 353.15 K | – | – | – | 7.5e-08
[1], 363.15 K | – | – | – | 7.35e-08
[1], 373.15 K | – | – | – | 7.25e-08
[1], Resistive pulse heating | 3270 | 668 | – | –
[2], 302.68 K | – | – | 258.85 | –
[2], 303.18 K | – | – | 259.11 | –
[2], 303.68 K | – | – | 258.98 | –
[2], 304.18 K | – | – | 259.24 | –
[2], 304.68 K | – | – | 258.98 | –
[2], 305.18 K | – | – | 258.72 | –
[2], 305.68 K | – | – | 259.11 | –
[2], 306.18 K | – | – | 258.85 | –
[2], 306.68 K | – | – | 258.98 | –
[2], 307.18 K | – | – | 259.5 | –
[2], 307.68 K | – | – | 259.63 | –
[2], 308.18 K | – | – | 259.89 | –
[2], 308.68 K | – | – | 260.15 | –
[2], 309.18 K | – | – | 259.89 | –
[2], 309.68 K | – | – | 259.63 | –
[2], 310.18 K | – | – | 259.76 | –
[2], 310.68 K | – | – | 259.37 | –
[2], 311.18 K | – | – | 259.37 | –
[2], 311.68 K | – | – | 259.5 | –
[2], 312.18 K | – | – | 259.76 | –
[2], 312.68 K | – | – | 259.89 | –
[2], 313.18 K | – | – | 259.76 | –
[2], 313.68 K | – | – | 260.15 | –
[2], 314.18 K | – | – | 260.02 | –
[2], 314.68 K | – | – | 260.54 | –
[2], 315.18 K | – | – | 260.15 | –
[2], 315.68 K | – | – | 260.02 | –
[2], 316.18 K | – | – | 259.89 | –
[2], 316.68 K | – | – | 260.8 | –
[2], 317.18 K | – | – | 260.93 | –
[2], 317.68 K | – | – | 260.8 | –
[2], 318.18 K | – | – | 261.06 | –
[2], 318.68 K | – | – | 261.06 | –
[2], 319.18 K | – | – | 261.19 | –
[2], 319.68 K | – | – | 261.06 | –
[2], 320.18 K | – | – | 260.93 | –
[2], 320.68 K | – | – | 261.06 | –
[2], 321.18 K | – | – | 261.19 | –
[2], 321.68 K | – | – | 261.32 | –
[2], 322.18 K | – | – | 261.06 | –
[2], 322.68 K | – | – | 260.8 | –
[2], 323.18 K | – | – | 261.32 | –
[2], 323.68 K | – | – | 261.32 | –
[2], 324.18 K | – | – | 261.45 | –
[2], 324.68 K | – | – | 261.72 | –
[2], 325.18 K | – | – | 261.59 | –
[2], 325.68 K | – | – | 261.85 | –
[2], 326.18 K | – | – | 261.98 | –
[2], 326.68 K | – | – | 262.11 | –
[2], 327.18 K | – | – | 262.11 | –
[2], 327.68 K | – | – | 262.24 | –
[2], 328.18 K | – | – | 262.37 | –
[2], 328.68 K | – | – | 262.63 | –
[2], 329.18 K | – | – | 262.76 | –
[2], 329.68 K | – | – | 262.63 | –
[2], 330.18 K | – | – | 262.63 | –
[2], 330.68 K | – | – | 263.02 | –
[2], 331.18 K | – | – | 263.15 | –
[2], 331.68 K | – | – | 263.15 | –
[2], 332.18 K | – | – | 263.93 | –
[2], 332.68 K | – | – | 263.8 | –
[2], 333.18 K | – | – | 264.06 | –
[2], 333.68 K | – | – | 263.93 | –
[2], 334.18 K | – | – | 264.06 | –
[2], 334.68 K | – | – | 264.45 | –
[2], 335.18 K | – | – | 264.45 | –
[2], 335.68 K | – | – | 264.19 | –
[2], 336.18 K | – | – | 264.19 | –
[2], 336.68 K | – | – | 264.58 | –
[2], 337.18 K | – | – | 264.45 | –
[2], 337.68 K | – | – | 264.32 | –
[2], 338.18 K | – | – | 264.45 | –
[2], 338.68 K | – | – | 264.45 | –
[2], 339.18 K | – | – | 265.1 | –
[2], 339.68 K | – | – | 265.36 | –
[2], 340.18 K | – | – | 264.97 | –
[2], 340.68 K | – | – | 264.84 | –
[2], 341.18 K | – | – | 264.97 | –
[2], 341.68 K | – | – | 265.49 | –
[2], 342.18 K | – | – | 265.49 | –
[2], 342.68 K | – | – | 265.62 | –
[2], 343.18 K | – | – | 265.75 | –
[2], 343.68 K | – | – | 266.01 | –
[2], 344.18 K | – | – | 266.4 | –
[2], 344.68 K | – | – | 266.27 | –
[2], 345.18 K | – | – | 266.27 | –
[2], 345.68 K | – | – | 266.4 | –
[2], 346.18 K | – | – | 266.79 | –
[2], 346.68 K | – | – | 266.4 | –
[2], 347.18 K | – | – | 266.79 | –
[2], 347.68 K | – | – | 266.66 | –
[2], 348.18 K | – | – | 266.92 | –
[2], 348.68 K | – | – | 267.31 | –
[2], 349.18 K | – | – | 266.92 | –
[2], 349.68 K | – | – | 267.18 | –
[2], 350.18 K | – | – | 267.7 | –
[2], 350.68 K | – | – | 267.7 | –
[2], 351.18 K | – | – | 268.09 | –
[2], 351.68 K | – | – | 268.09 | –
[2], 352.18 K | – | – | 267.96 | –
[2], 352.68 K | – | – | 268.48 | –
[2], 353.18 K | – | – | 268.61 | –
[2], 353.68 K | – | – | 268.61 | –
[2], 354.18 K | – | – | 268.48 | –
[2], 354.68 K | – | – | 268.48 | –
[2], 355.18 K | – | – | 268.87 | –
[2], 355.68 K | – | – | 268.87 | –
[2], 356.18 K | – | – | 268.87 | –
[2], 356.68 K | – | – | 269.13 | –
[2], 357.18 K | – | – | 269.39 | –
[2], 357.68 K | – | – | 269.78 | –
[2], 358.18 K | – | – | 269.91 | –
[2], 358.68 K | – | – | 269.65 | –
[2], 359.18 K | – | – | 270.17 | –
[2], 359.68 K | – | – | 270.3 | –
[2], 360.18 K | – | – | 270.56 | –
[2], 360.68 K | – | – | 270.83 | –
[2], 361.18 K | – | – | 270.96 | –
[2], 361.68 K | – | – | 270.56 | –
[2], 362.18 K | – | – | 270.56 | –
[2], 362.68 K | – | – | 270.56 | –
[2], 363.18 K | – | – | 271.09 | –
[2], 363.68 K | – | – | 270.96 | –
[2], 364.18 K | – | – | 271.22 | –
[2], 364.68 K | – | – | 271.48 | –
[2], 365.18 K | – | – | 271.74 | –
[2], 365.68 K | – | – | 271.74 | –
[2], 366.18 K | – | – | 271.87 | –
[2], 366.68 K | – | – | 271.87 | –
[2], 367.18 K | – | – | 271.87 | –
[2], 367.68 K | – | – | 272.39 | –
[2], 368.18 K | – | – | 272.52 | –
[2], 368.68 K | – | – | 272.65 | –
[2], 369.18 K | – | – | 273.04 | –
[2], 369.68 K | – | – | 273.04 | –
[2], 370.18 K | – | – | 272.78 | –
[2], 370.68 K | – | – | 272.91 | –
[2], 371.18 K | – | – | 273.3 | –
[2], 371.68 K | – | – | 273.56 | –
[2], 372.18 K | – | – | 273.56 | –
[2], 372.68 K | – | – | 273.56 | –
[2], 373.18 K | – | – | 273.82 | –
[2], 373.68 K | – | – | 273.69 | –
